From ChEMBL document CHEMBL1765021, “Assessing high affinity binding to HLA-DQ2.5 by a novel peptide library based approach” (Bioorg Med Chem, 2011)
The source made the active and inactive calls. The rule behind the calls is not given here. Peptide text beside a SMILES is read from it.

Assays:
Homo sapiens [1] = organism: Homo sapiens; assay: Ratio of IC50 of peptide P198 for human MHC class II HLA-DQ2.5 to IC50 of peptide for human MHC class II HLA-DQ2.5
Homo sapiens [2] = organism: Homo sapiens; assay: Binding affinity to MHC class II HLA-DQ2.5 in Epstein-Barr virus-transformed human B lymphocyte

Ratio IC50 (Homo sapiens [1])	Activity (Homo sapiens [2])	Compound
0.93	Active	CC(C)C[C@H](NC(=O)[C@H](CCC(=O)O)NC(=O)[C@H](CCC(=O)O)NC(=O)[C@H](CCC(=O)O)NC(=O)[C@H](CCCCN)NC(=O)[C@H](CCC(=O)O)NC(=O)[C@H](C)NC(=O)[C@H](C)NC(=O)[C@@H](N)Cc1ccccc1)C(=O)N[C@@H](CCCNC(=N)N)C(=O)O (H-FAAEKEEELR-OH)
	Active	CC(C)[C@H](NC(=O)[C@H](CCCCN)NC(=O)[C@H](CCC(=O)O)NC(=O)[C@H](C)NC(=O)[C@H](C)NC(=O)[C@@H](N)Cc1ccccc1)C(=O)N[C@@H](CCC(=O)O)C(=O)N[C@@H](CCC(=O)O)C(=O)N[C@@H](Cc1ccccc1)C(=O)N[C@@H](CCCNC(=N)N)C(=O)O (H-FAAEKVEEFR-OH)
	Active	CC(C)C[C@H](NC(=O)[C@H](C)NC(=O)[C@H](C)NC(=O)[C@@H](N)Cc1ccccc1)C(=O)N[C@@H](CCCCN)C(=O)N[C@@H](CCC(=O)O)C(=O)N[C@@H](CCC(=O)O)C(=O)N[C@@H](CCC(=O)O)C(=O)N[C@@H](Cc1ccc(O)cc1)C(=O)N[C@@H](CCCNC(=N)N)C(=O)O (H-FAALKEEEYR-OH)
